ChEMBL document CHEMBL1129307, “5-(4-Chlorophenyl)-4-methyl-3-(1-(2-phenylethyl)piperidin-4-yl)isoxazole: a potent, selective antagonist at human cloned dopamine D4 receptors” (J Med Chem, 1996)

Columns and labels:
D(4) dopamine receptor = biological target: T1, D(4) dopamine receptor (Homo sapiens, UniProt P21917); experiment: biochemical
T1 sequence (P21917 whole entry): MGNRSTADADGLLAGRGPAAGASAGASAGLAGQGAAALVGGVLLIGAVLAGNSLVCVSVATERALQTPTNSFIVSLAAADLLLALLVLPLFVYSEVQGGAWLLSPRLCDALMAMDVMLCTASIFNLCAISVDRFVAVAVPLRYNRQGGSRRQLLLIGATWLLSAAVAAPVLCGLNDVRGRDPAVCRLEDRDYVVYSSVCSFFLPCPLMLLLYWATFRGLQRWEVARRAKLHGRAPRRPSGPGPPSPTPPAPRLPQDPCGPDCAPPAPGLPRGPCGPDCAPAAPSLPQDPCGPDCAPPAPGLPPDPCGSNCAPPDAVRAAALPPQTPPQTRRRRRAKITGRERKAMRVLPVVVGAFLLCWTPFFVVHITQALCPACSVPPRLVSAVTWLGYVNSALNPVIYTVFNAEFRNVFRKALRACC
Description: Displacement of [3H]spiperone from human Dopamine receptor D4 expressed in HEK293 cells

D(3) dopamine receptor = D(3) dopamine receptor (Homo sapiens, UniProt P35462); experiment: biochemical
D(3) dopamine receptor, sequence (P35462 whole entry): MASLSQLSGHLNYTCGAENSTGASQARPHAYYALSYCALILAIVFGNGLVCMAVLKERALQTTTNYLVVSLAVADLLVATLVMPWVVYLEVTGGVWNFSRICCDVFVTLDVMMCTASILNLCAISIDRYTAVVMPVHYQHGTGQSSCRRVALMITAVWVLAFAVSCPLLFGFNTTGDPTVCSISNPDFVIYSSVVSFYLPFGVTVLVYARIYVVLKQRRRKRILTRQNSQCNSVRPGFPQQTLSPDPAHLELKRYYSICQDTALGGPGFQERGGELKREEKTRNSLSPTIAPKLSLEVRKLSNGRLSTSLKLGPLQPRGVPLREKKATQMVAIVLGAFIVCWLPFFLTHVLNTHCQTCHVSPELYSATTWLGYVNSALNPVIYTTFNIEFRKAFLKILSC
Description: Displacement of [3H]spiperone from human Dopamine receptor D3 expressed in CHO cells

Row | SMILES | Ki (D(4) dopamine receptor) [µM] | Ki (D(3) dopamine receptor) [µM]
1 | Clc1ccc(CN2CCC(c3cc(-c4ccc(Cl)cc4)on3)CC2)cc1 | 0.044 | 0.43
2 | Cc1c(C2CCN(CCc3ccccc3)CC2)n[nH]c1-c1ccc(Cl)cc1 | 0.0012 | 1.2
3 | Clc1ccc(CN2CCC(c3cc(-c4ccc(Cl)cc4)no3)CC2)cc1 | 0.0036 | 0.081
4 | Cc1c(-c2ccc(Cl)cc2)noc1C1CCN(CCc2ccccc2)CC1 | 0.0025 | 0.48
5 | Clc1ccc(CN2CCC(c3cc(-c4ccc(Cl)cc4)[nH]n3)CC2)cc1 | 0.061 | 0.82
6 | Clc1ccc(-c2cc(C3CCN(CCc4ccccc4)CC3)[nH]n2)cc1 | 0.0055 | > 4
